Assay results reported in patent US8007833B2, “Method of reducing infections and/or air embolisms associated with vascular access procedures” (Biolife, L.L.C., priority 2009, dated 2011).

Legend:
Assay in all cases: Biofilm Eradication with Calgary Biofilm Device
Type in all cases: cell-based
[1] = test system: MRS. aureus
Text: (§1) VI. Biofilm Eradication with Calgary Biofilm Device [Innovotech]
(§2) Minimum Bactericidal Concentration (MBC) Breakpoints
(§3) Minimum Biofilm Eradication Concentration (MBEC) Breakpoints
(§4) Minimum Concentration that Kills Biofilms with Log R of 3 or Higher

[2] = test system: MRS. epidermidis
Text: as §1, §2, §3, §4

[3] = test system: P. aeruginosa
Text: as §1
(§5) Minimum Inhibitory Concentration (MIC) Breakpoints
as §2, §3, §4

[4] = test system: S. aureus
Text: as §1, §5

[5] = test system: S. epidermidis
Text: as §1, §5

For Gentamicin, the “Minimum Bactericidal Concentration (MBC) Breakpoints” value (“Minimum Bactericidal Concentration” for short) ([1]; MRS. aureus) was <16 µg/mL, the “Minimum Biofilm Eradication Concentration (MBEC) Breakpoints” value ([1]; MRS. aureus biofilm) was 1024 µg/mL and the “Minimum Concentration that Kills Biofilms with Log R of 3 or Higher” value ([1]; MRS. aureus biofilm) was 1024 ug/mL. For the same substance, the “Log 10 Reduction” value ([1]; MRS. aureus biofilm, at only 1024 ug/mL) was “greater than 3”, the “Minimum Bactericidal Concentration” value ([2]; MRS. epidermidis) was <8 µg/mL and the “Minimum Biofilm Eradication Concentration (MBEC) Breakpoints” value ([2]; MRS. epidermidis biofilm) was >1024 µg/mL. For the same substance, the “Minimum Concentration that Kills Biofilms with Log R of 3 or Higher” value ([2]; MRS. epidermidis biofilm) was >1024 ug/mL, the “Log 10 Reduction” value ([2]; MRS. epidermidis biofilm, at any concentration) was ≤ 3 and the “Minimum Bactericidal Concentration” value ([3]; P. aeruginosa) was <8 µg/mL. For the same substance, the “Minimum Inhibitory Concentration (MIC) Breakpoints” value (shortened to “Minimum Inhibitory Concentration”) ([3]; P. aeruginosa) was <8 µg/mL, the “Minimum Biofilm Eradication Concentration (MBEC) Breakpoints” value ([3]; P. aeruginosa biofilm) was >1024 µg/mL and the “Minimum Concentration that Kills Biofilms with Log R of 3 or Higher” value ([3]; P. aeruginosa biofilm) was 64 ug/mL. For the same substance, the “Log 10 Reduction” value ([3]; P. aeruginosa biofilm, at 256 ug/mL, 128 ug/mL and 64 ug/mL) was “greater than three”, the “Minimum Inhibitory Concentration” value [4] was <8 µg/mL and the “Minimum Inhibitory Concentration” value [5] was <8 µg/mL.
